Source: ChEMBL document CHEMBL3507680, “University of Dundee, Gates Library screen for HepG2 cell viability”

Experiment: Human HepG2 cell viability assay in 384 well format
Type: toxicity, cell-based
Design: dose 125 nL, time 70.5 hour; concentration not given beside the values
Conditions: HepG2 cells, read-out: Inhibition

SMILES | cytotoxicity at 70.5 h
CN(C)CC1(O)CCCN(C(=O)Cc2ccc(Cl)c(Cl)c2)C1 (configuration not stated) | -2.73%
Cc1cc(C)cc(CNCCS(=O)(=O)N2CCOCC2)c1 | 33.6%
O=C1CC(NCc2ccc(Cl)s2)CN1Cc1cccc(F)c1 (configuration not stated) | -7.49%
OCc1nnc2n1CCN(c1cnccn1)C2 | -1.17%
CN(C)C[C@H]1C[C@@H]2CN(Cc3ccoc3)C[C@@H]2O1 | -12.5%
Cc1ccc(N2C[C@H](C)[C@]3(CCN(c4cccnc4)C3=O)C2)nn1 | -3.28%
COCC1CN(c2ncc(F)cn2)Cc2cnn(C)c21 (configuration not stated) | -4.56%
COc1ccc(C[C@H]2CN(C(=O)c3ncccn3)CC[C@@H]2OC)cc1 | -6.01%
CC(C)CCN(C(=O)c1nc(S(C)(=O)=O)n2ccccc12)C1CC1 | -1.14%
CN(CC(=O)Nc1ccncc1)CC1CCCN1c1cccnn1 (configuration not stated) | -11.4%
Cn1c(CN2CCCCC2)nnc1C1CCN(c2nccc(N)n2)CC1 | -7.78%
COc1cc(S(=O)(=O)N2CCCc3ccccc32)cc(C(=O)O)c1OC | 5.62%
CC(=O)N(CCc1ccccc1)CC(=O)Nc1ccccc1C#N | -1.29%
Cn1c(NCCC(=O)N2CCCC2)c(C#N)c(=O)n(C)c1=O | 3.58%
CN1CCN(c2cc(NC(=O)c3cnccn3)ncn2)CC1 | 0.507%
Cc1ccn(-c2cncc(C(N)=O)c2)n1 | -14.4%
O=C(O)c1cc(-c2ccoc2)cc(S(=O)(=O)N2CCSCC2)c1 | -4.7%
Cc1ccc(-c2ccnc(N3CCC4(CC3)CNC(=O)O4)n2)c(C)n1 | -9.43%
NC(=O)C1CCN(C(=O)Cc2cnc(-c3c(Cl)cccc3Cl)s2)CC1 | -13.5%
CC(C)c1nccn1C1CCCN(C(=O)c2ccnc(N(C)C)c2)C1 (configuration not stated) | -2.47%
O=C(CN(Cc1cccnc1)CC1CCCO1)Nc1ccc(F)cc1 (configuration not stated) | 2.4%
O=C(c1ncoc1C1CC1)N1CCN(CCOc2ccccc2)CC1 | 26%
Cc1nc(-c2ccccc2)c(C(=O)N2CCC3(CC(=O)NC3=O)C2)s1 (configuration not stated) | -6.69%

SMILES | cytotoxicity at 70.5 h
c1nc2c(c(C3CCOC3)n1)CCN(Cc1ccoc1)CC2 (configuration not stated) | 7.95%
CN1CCN([C@@H]2CN(C(=O)c3cc4ccc(F)cc4[nH]3)C[C@H]2O)CC1 | -3.6%
c1cnc(N2C[C@H]3CCC[C@@H](CN4CCCC4)[C@H]3C2)nc1 | 22.9%
Cc1ccc(CN2CCc3onc(C(=O)N4CCCC4)c3C2)o1 | -6.06%
CC(C(=O)NC1CC1)S(=O)(=O)Cc1nc(Cc2ccccc2)no1 (configuration not stated) | -0.763%
CCc1nnc(CN(C)C2CCCN(Cc3noc(C4CC4)n3)C2)o1 (configuration not stated) | 12.1%
O=C(c1cnoc1)N1CCC[C@]2(C[C@@H](Oc3ccccn3)CO2)C1 | -6.93%
COCc1c(Br)cccc1NC(=O)CC(F)(F)F | -13.2%
N#Cc1cnc2ccccc2c1N1CCN(C(=O)C2CCC2)CC1 | -1.5%
CN(C)c1ccc(C(=O)N2CCCC(n3cccn3)C2)nn1 (configuration not stated) | -4.36%
CCn1cc(S(=O)(=O)NCC(OC)c2ccccc2)cn1 (configuration not stated) | -3.94%
COCc1nc(C(=O)N2CCCC(n3cccn3)C2)cs1 (configuration not stated) | -13.4%
CCN(CCN(C)C)c1nc(CCN)nc2sc(C)c(C)c12 | 8.66%
COC(=O)CNC(=O)CSCc1nc(O)c2cc(C(C)C)sc2n1 | -14.3%
CCc1nc2ccccc2n1C(CC)C(=O)N(C)Cc1noc(C)n1 (configuration not stated) | -19.8%
CC(C)c1ncc(CN2CCC(CO)C2)cn1 (configuration not stated) | -4.22%
CC[C@H]1COCCN1C(=O)c1ccc(OC)c(N2CCOCC2)c1 | -10.3%
O=S(=O)(NC1CCCCC12OCCO2)c1ccc2c(c1)OCCO2 (configuration not stated) | -7.16%
Fc1ccc(CN2CCCC(c3nccnc3-n3ccnc3)C2)cc1 (configuration not stated) | 3.95%
COc1cc2c(cc1OC)C(=O)C(Sc1nnnn1C)C2 (configuration not stated) | -18.6%
COCCN(C)C(=O)c1nc2c(s1)CCCN2C | 11.8%
CCOCC1CN(C(=O)c2cnoc2C)Cc2cnn(C)c21 (configuration not stated) | -12.5%
Cc1cc(C2CCCN2S(=O)(=O)c2cnn(C)c2)on1 (configuration not stated) | -6.62%

SMILES | cytotoxicity at 70.5 h
CS(=O)(=O)NCc1cn2c(n1)CN(Cc1ccoc1)CC2 | 3.17%
Cc1ccc(CC(=O)N(C)CC2(O)CCCN(c3ccccn3)C2)s1 (configuration not stated) | -5.95%
CSCC[C@@H](CO)Nc1ccc(-c2nc(-c3ccccc3F)no2)cn1 | -6.28%
N#Cc1c(Cl)nsc1NCc1cccnc1OC1CCCC1 | -94.1%
CCN(Cc1ccncc1)Cc1c[nH]nc1-c1ccc(F)cc1 | -6.51%
O=C(NS(=O)(=O)c1ccc2c(c1)OCCO2)c1ccc(Br)cc1F | 5.66%
CCc1n[nH]c(C2CN(Cc3nnc(C4CCC4)o3)CCO2)n1 (configuration not stated) | -7.61%
CCNC(=O)C1CCCN(C(=O)Nc2cc(C#N)ccc2OCC)C1 (configuration not stated) | 0.887%
CN(C)C(=O)COCC1CN(Cc2cccs2)Cc2ncn(C)c21 (configuration not stated) | 17.3%
CO[C@@H]1CCN(c2ncccn2)[C@H]1Cc1ccccc1 | 1.42%
O=C(c1cscn1)N1CC[C@@H]2[C@@H]1CCN2CC1CCOCC1 | -1.87%
O=C(COc1ccccc1)NS(=O)(=O)Cc1ccccc1 | -1.17%
COc1ccc(-c2nnc(CN3CCNC(=O)C3)o2)cc1 | -2.61%
CC(=O)N1CCN(c2cc(C)ncn2)CC(CO)C1 (configuration not stated) | -3.4%
CCCc1cc(C(=O)N2C[C@H]3CC=C(C)C[C@H]3C2)ccn1 | -8.24%
O=C(Cc1ccc2c(c1)OCC2)Nc1nc[nH]n1 | -8.03%
CCN(Cc1ccc(CN(C)C)cc1)C(=O)c1ccncc1O | -11.2%
CCn1c(CN2CCN(CCO)CC2)nc2c(F)cccc21 | -4.39%
O=c1cc(N2CCc3ccccc3C2)cnn1CCC1CCOC1 (configuration not stated) | 1.4%
Cc1nn(C)c(N2CCOCC2)c1CNCc1ccc(Cl)s1 | -2.69%
O=C(c1cnc(OCC(F)(F)F)c(Cl)c1)N1CCc2ccc(O)cc2C1 | -18.4%
CCCN(CCC)C1(Cc2cc(-c3cccc(O)c3)on2)COC1 | -2.95%
CCc1nc(C2CCCN(C(=O)c3ccccc3Cl)C2)no1 (configuration not stated) | -1.75%

SMILES | cytotoxicity at 70.5 h
Cc1nccc([C@@H]2C[C@@H]3CCN(S(=O)(=O)C4CC4)C[C@H]3O2)n1 | -1.95%
Cc1ccc(CC(=O)N2CCCN(Cc3nccn3C)CC2)cn1 | -1.57%
CS(=O)(=O)NCc1cc(-c2cc(F)cc(F)c2)nc(N2CCOCC2)n1 | -13.9%
O=C(N[C@H]1CN(Cc2cccs2)[C@@H]2CCCO[C@H]12)c1cccnc1 | -18.4%
CN1C(=O)CCCC12CCCN(Cc1cccs1)C2 (configuration not stated) | -6.68%
O=C(Nc1cccnc1)[C@@H]1COC[C@H]2CN(C3CCCC3)C[C@H]21 | -124%
CCCN(CC1CC1)C(=O)Nc1ccc(N2CCSCC2)cc1C | -8.14%
CC(C)(C)c1nc(CN2CCCC2CCc2ccccc2)no1 (configuration not stated) | 13.1%
CCn1ncc(S(=O)(=O)N[C@@H]2CCC[C@@H](n3ccnc3)[C@@H]2O)c1C | -2.3%
Cc1cc(NCc2csc(-c3ccco3)n2)ccc1C(N)=O | -6.99%
O=C(NCc1nncn1C1CC1)Nc1ccc(OC2CCC2)c(F)c1 | -1.51%
COc1ccc(CNC2CCC(O)CC2)cc1OCCCC#N (configuration not stated) | -5.82%
Cc1ccccc1C1(C(=O)NCCN2CCCCC2C)CCOCC1 (configuration not stated) | -6.68%
CCC(Nc1nc(CCN)nc2ccccc12)c1cccs1 (configuration not stated) | -3.38%
NC(=O)c1cnn2c(C3CCCN(C4CCOCC4)C3)ccnc12 (configuration not stated) | -0.336%
CCOC(C)c1noc(CN(C)C(=O)c2cc3ccccn3c2)n1 (configuration not stated) | -3.99%
Cc1nc(CC(C)C)sc1C(=O)N1CCC1 | -2.02%
Cc1ccc(N(CC(=O)N2CCCCC2)C(=O)C2COCCO2)cc1 (configuration not stated) | -2.98%
C[C@H]1CN(C(=O)N(C)C)C[C@@]12CCN(c1ccsc1)C2=O | -8.12%
CN(C)c1ccccc1C(=O)N1CCCC(c2ccc(C(=O)O)cc2)C1 (configuration not stated) | -17.2%
CN(C)CCN1C[C@@H]2CN(C(=O)C3CCOC3)C[C@@H]2C1=O (some centres not stated) | 23.4%
O=C(NC1CC1)[C@H]1C[C@H]2OCC[C@H]2N(Cc2ccc3ccccc3n2)C1 | -4.59%
COc1ccccc1OCC(=O)NS(=O)(=O)c1ccc(Br)s1 | -4.66%

SMILES | cytotoxicity at 70.5 h
O=c1ccc2c(n1Cc1cccnc1)CCN(C1CCOC1)CC2 (configuration not stated) | -2.89%
CCn1ccnc1CNCc1ccc(C)cc1OC(C)(C)C | -11%
CC(CCc1ccccc1F)C(=O)NS(C)(=O)=O (configuration not stated) | -8.18%
CN(C)C[C@@H]1CN(C2CCN(c3ccccc3Cl)CC2)C[C@@H]1CO | -14.4%
Cc1ccc(CN2C[C@H](N(C)Cc3cncnc3)[C@H]3OCCC[C@H]32)o1 | -10.1%
O=C(CCn1c(C(F)(F)F)cc2cccnc21)N1CCOCC1 | 0.815%
Cc1ccc(C(=O)N(Cc2cccnc2)C[C@@H]2CCC(=O)N2)s1 | 28%
O=C1CCNc2ccc(F)cc2CN1Cc1ccco1 | 2.21%
Cc1cc(C(=O)N2CCc3nnc(N(C)C)cc3C2)c(C)n1C1CC1 | -3.63%
O=C(c1cn(-c2ccccc2Cl)nn1)N1CCSCC1 | 15.4%
Cc1nc(CNC(=O)N2CCN(c3ccc(Cl)cn3)CC2)sc1C | -3.28%
Cc1cc(CN2CCc3nn(C)c(=O)cc3C2)no1 | -2.94%
COc1ccc(C(O)CNC(=O)NCc2csc(C)n2)cc1 (configuration not stated) | 27.2%
O=C(c1ccc[nH]1)N1C[C@H](OCc2ccccn2)[C@H]2COC[C@H]21 | -5.92%
Cc1nnc(CN(Cc2cccc(Br)c2)C2CC2)o1 | -8.25%
CCCc1cnc(C)nc1N1CCC(Cn2cc(C(C)O)nn2)CC1 (configuration not stated) | -13.9%
CCOc1ccc2nc(CN3CCC(CN)C3)ccc2c1 (configuration not stated) | -2.57%
COc1ccc(CN(C)[C@@H]2CN(C(=O)c3cncs3)C[C@H]2O)cc1 | 0.0164%
CC(Cn1cccn1)NC(=O)N1CCN(Cc2ccsc2)CC1 (configuration not stated) | -1.89%
c1cnc(N2CC3(CCN(C4CCOC4)CC3)c3ccccc32)nc1 (configuration not stated) | -6.16%
